According to patent US10287301B2 (Achillion Pharmaceuticals, Inc., priority 2015, dated 2019):

What follows are compounds tested against Human Factor D (Homo sapiens (Human), UniProt P00746) (assay: Human Factor D Assay). Conditions: Human Factor D 80 nM, substrate Z-L-Lys-SBzl; read-out: IC50.
Assay type: biochemical
How it was run: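 IC50 values derive from nonlinear regression of Factor D reaction rates against compound concentration. The enzyme, purified from human serum, is used at 80 nM final with a 5 min room-temperature compound preincubation in 50 mM Tris, 1M NaCl, pH 7.5, before 100 μM Z-L-Lys-SBzl plus 100 μM DTNB are added.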

Chain of Human Factor D (P00746 26-253): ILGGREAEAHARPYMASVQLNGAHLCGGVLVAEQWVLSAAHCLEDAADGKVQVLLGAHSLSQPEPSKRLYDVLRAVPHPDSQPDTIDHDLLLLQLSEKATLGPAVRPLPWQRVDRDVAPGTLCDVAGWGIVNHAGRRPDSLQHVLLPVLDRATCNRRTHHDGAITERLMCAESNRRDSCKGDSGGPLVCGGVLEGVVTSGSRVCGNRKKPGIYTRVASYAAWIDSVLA

Going from `CC(=O)c1cn(CC(=O)N2C[C@H](F)C[C@H]2C(=O)Nc2ccc(CN)cc2)c2ccc(-c3ccnnc3)cc12` [Compound 85, (2S,4R)-1-(2-(3-acetyl-5-(pyridazin-4-yl)-1H-indol-1-yl)acetyl)-N-(4-(aminomethyl)phenyl)-4-fluoropyrrolidine-2-carboxamide] to `CC(=O)c1cn(CC(=O)N2C[C@H](F)C[C@H]2C(=O)Nc2cncc(Cl)n2)c2ccc(-c3ccnnc3)cc12` [Compound 88, (2S,4R)-1-(2-(3-acetyl-5-(pyridazin-4-yl)-1H-indol-1-yl)acetyl)-N-(6-chloropyrazin-2-yl)-4-fluoropyrrolidine-2-carboxamide], the IC50 falls from > 10 µM to < 1 µM.

Compared with `NC(=O)c1nn(CC(=O)N2C[C@H](F)C[C@H]2C(=O)Nc2ccc3cn[nH]c3c2)c2ccc(-c3ccnnc3)cc12` [Compound 86, 1-(2-((2S,4R)-2-(1H-indazol-6-ylcarbamoyl)-4-fluoropyrrolidin-1-yl)-2-oxoethyl)-5-(pyridazin-4-yl)-1H-indazole-3-carboxamide], `NC(=O)c1nn(CC(=O)N2C[C@H](F)C[C@H]2C(=O)Nc2cncc(Cl)n2)c2ccc(-c3ccnnc3)cc12` [Compound 89, 1-(2-((2S,4R)-2-(6-chloropyrazin-2-ylcarbamoyl)-4-fluoropyrrolidin-1-yl)-2-oxoethyl)-5-(pyridazin-4-yl)-1H-indazole-3-carboxamide] is lower in IC50: > 10 µM for the first, < 1 µM for the second.

Going from `NC(=O)c1nn(CC(=O)N2C[C@H](F)C[C@H]2C(=O)Nc2ccc(F)c(-c3nnc4n3CCCCC4)c2)c2ccc(-c3ccnnc3)cc12` [Compound 91, 1-(2-((2S,4R)-4-fluoro-2-(4-fluoro-3-(6,7,8,9-tetrahydro-5H-[1,2,4]triazolo[4,3-a]azepin-3-yl)phenylcarbamoyl)pyrrolidin-1-yl)-2-oxoethyl)-5-(pyridazin-4-yl)-1H-indazole-3-carboxamide] to `CC(=O)c1cn(CC(=O)N2C[C@H](F)C[C@H]2C(=O)Nc2ccc(F)c(-c3nnc4n3CCCCC4)c2)c2ccc(-c3ccnnc3)cc12` [Compound 92, (2S,4R)-1-(2-(3-acetyl-5-(pyridazin-4-yl)-1H-indol-1-yl)acetyl)-4-fluoro-N-(4-fluoro-3-(6,7,8,9-tetrahydro-5H-[1,2,4]triazolo[4,3-a]azepin-3-yl)phenyl) pyrrolidine-2-carboxamide], the IC50 falls from > 10 µM to < 1 µM. The second is the more potent here.

`NC(=O)c1nn(CC(=O)N2C[C@H](F)C[C@H]2C(=O)Nc2cccc(Cl)c2C(F)(F)F)c2ccc(-c3ccnnc3)cc12` [Compound 93, 1-(2-((2S,4R)-2-(3-chloro-2-(trifluoromethyl)phenylcarbamoyl)-4-fluoropyrrolidin-1-yl)-2-oxoethyl)-5-(pyridazin-4-yl)-1H-indazole-3-carboxamide] and `NC(=O)c1nn(CC(=O)N2C[C@H](F)C[C@H]2C(=O)Nc2cccc(Cl)c2-n2cncn2)c2ccc(-c3ccnnc3)cc12` [Compound 96, 1-(2-((2S,4R)-2-(3-chloro-2-(1H-1,2,4-triazol-1-yl)phenylcarbamoyl)-4-fluoropyrrolidin-1-yl)-2-oxoethyl)-5-(pyridazin-4-yl)-1H-indazole-3-carboxamide] cannot be ordered by IC50: > 10 µM for the first, > 10 µM for the second.

`NC(=O)c1nn(CC(=O)N2C[C@H](F)C[C@H]2C(=O)Nc2c[nH]nc2-c2ccc(Cl)cc2Cl)c2ccc(-c3ccnnc3)cc12` [Compound 94, 1-(2-((2S,4R)-2-(3-(2,4-dichlorophenyl)-1H-pyrazol-4-ylcarbamoyl)-4-fluoropyrrolidin-1-yl)-2-oxoethyl)-5-(pyridazin-4-yl)-1H-indazole-3-carboxamide] and `Cn1cnnc1-c1ccccc1NC(=O)[C@@H]1C[C@@H](F)CN1C(=O)Cn1nc(C(N)=O)c2cc(-c3ccnnc3)ccc21` [Compound 98, 1-(2-((2S,4R)-4-fluoro-2-(2-(4-methyl-4H-1,2,4-triazol-3-yl)phenylcarbamoyl)pyrrolidin-1-yl)-2-oxoethyl)-5-(pyridazin-4-yl)-1H-indazole-3-carboxamide] cannot be ordered by IC50: > 10 µM for the first, > 10 µM for the second.

Going from `CC(=O)c1cn(CC(=O)N2C[C@H](F)C[C@H]2C(=O)Nc2cccc(Cl)c2-n2cncn2)c2ccc(-c3ccnnc3)cc12` [Compound 95, (2S,4R)-1-(2-(3-acetyl-5-(pyridazin-4-yl)-1H-indol-1-yl)acetyl)-N-(3-chloro-2-(1H-1,2,4-triazol-1-yl)phenyl)-4-fluoropyrrolidine-2-carboxamide] to `CC(=O)c1cn(CC(=O)N2C[C@H](F)C[C@H]2C(=O)Nc2nc(-c3ccccc3Cl)ns2)c2ccc(-c3ccnnc3)cc12` [Compound 99, (2S,4R)-1-(2-(3-acetyl-5-(pyridazin-4-yl)-1H-indol-1-yl)acetyl)-N-(3-(2-chlorophenyl)-1,2,4-thiadiazol-5-yl)-4-fluoropyrrolidine-2-carboxamide], the IC50 falls from > 10 µM to < 1 µM. The second is the more potent here.

`CC(=O)c1cn(CC(=O)N2C[C@H](F)C[C@H]2C(=O)Nc2cc(C)nc3nc(C(F)(F)F)nn23)c2ccc(-c3ccnnc3)cc12` [Compound 97, (2S,4R)-1-(2-(3-acetyl-5-(pyridazin-4-yl)-1H-indol-1-yl)acetyl)-4-fluoro-N-(5-methyl-2-(trifluoromethyl)-[1,2,4]triazolo[1,5-a]pyrimidin-7-yl)pyrrolidine-2-carboxamide] and `CC(=O)c1cn(CC(=O)N2C[C@H](F)C[C@H]2C(=O)Nc2cccc3c2CN(c2ccccn2)C3)c2ccc(-c3ccnnc3)cc12` [Compound 105, (2S,4R)-1-(2-(3-acetyl-5-(pyridazin-4-yl)-1H-indol-1-yl)acetyl)-4-fluoro-N-(2-(pyridin-2-yl)isoindolin-4-yl)pyrrolidine-2-carboxamide] cannot be ordered by IC50: > 10 µM for the first, > 10 µM for the second.

`CC(=O)c1cn(CC(=O)N2C[C@H](F)C[C@H]2C(=O)Nc2cccc(Br)n2)c2ccc(-c3ccccc3Cl)cc12` [Compound 100, (2S,4R)-1-(2-(3-acetyl-5-(2-chlorophenyl)-1H-indol-1-yl)acetyl)-N-(6-bromopyridin-2-yl)-4-fluoropyrrolidine-2-carboxamide] and `CC(=O)c1cn(CC(=O)N2C[C@H](F)C[C@H]2C(=O)Nc2cccc(-c3ccccc3Cl)c2F)c2ccc(-c3cnc(C)nc3)cc12` [Compound 102, (2S,4R)-1-(2-(3-acetyl-5-(2-methylpyrimidin-5-yl)-1H-indol-1-yl)acetyl)-N-(2′-chloro-2-fluorobiphenyl-3-yl)-4-fluoropyrrolidine-2-carboxamide] cannot be ordered by IC50: < 1 µM for the first, < 1 µM for the second.

`Cc1ncc(-c2ccc3c(c2)c(C(N)=O)nn3CC(=O)N2C[C@H](F)C[C@H]2C(=O)Nc2cccc(Br)n2)cn1` [Compound 101, 1-(2-((2S,4R)-2-(6-bromopyridin-2-ylcarbamoyl)-4-fluoropyrrolidin-1-yl)-2-oxoethyl)-5-(2-methylpyrimidin-5-yl)-1H-indazole-3-carboxamide] and `Cc1ncc(-c2ccc3c(c2)c(C(N)=O)nn3CC(=O)N2C[C@H](F)C[C@H]2C(=O)Nc2cccc(-c3ccccc3Cl)c2F)cn1` [Compound 103] cannot be ordered by IC50: < 1 µM for the first, < 1 µM for the second.

With `NC(=O)c1nn(CC(=O)N2C[C@H](F)C[C@H]2C(=O)Nc2cccc3c2CN(c2ccccn2)C3)c2ccc(-c3ccnnc3)cc12` [Compound 104, 1-(2-((2S,4R)-4-fluoro-2-(2-(pyridin-2-yl)isoindolin-4-ylcarbamoyl)pyrrolidin-1-yl)-2-oxoethyl)-5-(pyridazin-4-yl)-1H-indazole-3-carboxamide] the IC50 was > 10 µM.
